US5401724A, “Therapeutic treatment of chronic myelogenous leukemia by administration of 2-chloro-2'-deoxy adenosine” (priority 1994, dated 1995)
pIC50: −log10 of the molar value.

Tests used:
[1] = test system: delayed-type hypersensitivity; assay: Oral and IP effects on delayed-type hypersensitivity (DTH) to ovalbumin (Example 5, first study); format: in vivo, guinea pig; settings: for inhibition of swelling compared to saline control: 24 and 48 hours after ovalbumin challenge; for effectiveness when given orally: without the protection of an enteric coating (2-CdA), preliminary in vivo studies
Protocol: (§1) Delayed-type hypersensitivity (DTH) is a cell-mediated immune response that typically takes longer than 12 hours to develop. In the guinea pig, a DTH reaction to an antigen can be established by first immunizing the animal with the antigen in an adjuvant such as Freund's complete adjuvant. Subsequent intradermal injection of the antigen causes no change for at least 10 hours, after which there is a gradual increase in erythema and swelling in response to antigen injection. This response peaks about at about 24 hours after challenge, then gradually subsides.
(§2) Histologically, the inflammatory response is characterized by intense inundation of the site with mononuclear cells, of which about half are lymphocytes and the other half monocytes. DTH is therefore an indicator of a monocyte-mediated immune reaction.
In one study, guinea pigs were sensitized to ovalbumin in adjuvant. […] The animals were then injected with ovalbumin intradermally to elicit the DTH response. The mean area of the swelling size was measured for each animal (nine or ten animals were treated for each protocol).

[2] = test system: delayed-type hypersensitivity; assay: Effects of different dosages of 2-CdA on DTH to ovalbumin (Example 5, second study); format: in vivo, guinea pig; settings: for inhibition of swelling compared to saline control: 24 and 48 hours post-challenge, p <0.01 by Student's t-test
Protocol: as §1, §2
Three days after treatment, the animals were challenged with ovalbumin intradermally. The areas of the skin lesions were measured at 6, 24, and 48 hours after challenge.

CEM, wild type [3] = assay: cells; settings: Homo sapiens, 120 h, read-out: ID50
From the text: (§4) ^1 Concentration that produced 50 percent reduction in all numbers

CEM, wild type [4] = test system: CEM, wild type
From the text: as §4

[5] = test system: HL-60 (monocyte-like cell line); assay: cells; settings: Homo sapiens
From the text: (§5) Of the other five cell lines, two were T cell lines, one called CEM and the other Molt-4, and the remaining three were monocyte-like cell lines, designated THP-1, U937 and HL-60, respectively.

K562 (myeloid cell line) = assay: cells; settings: Homo sapiens
Protocol: (§6) Seven different cell lines were treated with varying concentrations of 2-chloro-9,1'-beta-2'-deoxy-2'-fluoro-D-arabinofuranosyladenine (CAFdA) to determine percent viability. CAFdA concentrations ranging from 0 to about 260 nM were used to treat each cell line in vitro.

[6] = test system: Peripheral blood lymphocytes; assay: cells; settings: Homo sapiens, Lymphocyte, 120 h, read-out: ID50
From the text: as §4

SB (B cell line) = assay: cells; settings: Homo sapiens
Protocol: as §6

[7] = test system: DHL9, Increased ribonucleotide reduction; assay: cells; settings: Homo sapiens, 120 h, read-out: ID50
From the text: as §4

Monocytes [8] = test system: Monocytes
From the text: as §4

[9] = test system: CEM, Increased 5'-nucleoside
From the text: as §4

[10] = test system: U937 (monocyte-like cell line); assay: cells; settings: Homo sapiens, U-937
From the text: as §5

Molt-4 (T cell line) = assay: cells; settings: Homo sapiens
From the text: as §5

[11] = test system: THP-1 (monocyte-like cell line); assay: cells; settings: Homo sapiens
From the text: as §5

Monocytes [12] = assay: cells; settings: Homo sapiens, Monocyte, 120 h, read-out: ID50
From the text: as §4

[13] = test system: DHL9, Increased ribonucleotide reduction
From the text: as §4

[14] = test system: CEM, Increased 5'-nucleoside; assay: cells; settings: Homo sapiens, 120 h, read-out: ID50
From the text: as §4

CEM (T cell line) = assay: cells; settings: Homo sapiens
From the text: as §5

[15] = test system: CEM, deoxyeytidine kinase deficient; assay: cells; settings: Homo sapiens, 120 h, read-out: ID50
From the text: as §4

[16] = test system: Peripheral blood lymphocytes
From the text: as §4

[17] = test system: chronic myelogenous leukemia; settings: cited from earlier work; for bone marrow cells with the translocation: marrow of treated patients
[18] = pH 1, 37 degrees C.; cited from earlier work
granulocytes [19] = assay: Effects of 2-CdA on granulocyte counts in two non-CML (multiple sclerosis) patients (Example 3); format: in vivo, human
From the text: Those results are illustrated and discussed hereinafter in Example 3.
Granulocyte counts were obtained from two patients who were receiving 2-CdA in the treatment of a non-leukemic disease, multiple sclerosis. These patients therefore had normal granulocytes.

granulocytes [20] = settings: hairy cell leukemia, cited from earlier work
[21] = test system: Colony forming unit-granulocyte macrophage (CFU-GM) cells; settings: read-out: IC50 (concentration required to inhibit 50 percent of growth); cited from earlier work
neutrophils = settings: chronic lymphocytic leukemia; serum levels less than 10 nM; in most cases; cited from earlier work
[22] = test system: total circulating peripheral blood granulocytes; assay: Effect of 2-CdA on total circulating peripheral blood granulocytes in a patient with CML (Example 2); format: in vivo, human
Protocol: (§3) Each course was repeated every 28 days until the maximum hematological remission response of the treatment was achieved. The median age of the patients was 60 years, with a range of 52 to 75 years. There were 3 males and 2 females. A median of 2 courses of treatment was administered, with a range of 1 to 4 courses.

CML in blast crisis = settings: Phase I, cited from earlier work
[23] = test system: chronic myelogenous leukemia; assay: Hematological remission in patients with stable phase CML treated with 2-CdA (Example 1); format: in vivo, human
Protocol: as §3
The median follow-up was 3.2 months, with a range from 1.0 to 5.7 months.

[24] = test system: colony forming unit-erythroid (CFU-E) cells; settings: read-out: IC50 (concentration required to inhibit 50 percent of growth); cited from earlier work
CFU-GM cells = settings: 100 nM; cited from earlier work
[25] = test system: Primitive burst-forming unit-erythroid (pBFU-E) cells; settings: read-out: IC50 (concentration required to inhibit 50 percent of growth); cited from earlier work
[26] = test system: Mature BFU-E (mBFU-E) cells; settings: read-out: IC50 (concentration required to inhibit 50 percent of growth); cited from earlier work
[27] = 1 mg/kg, intraperitoneal, p <0.01 by Student's t-test

For `C[C@@H]1C[C@H]2[C@@H]3CCC4=CC(=O)C=C[C@]4(C)[C@@]3(F)[C@@H](O)C[C@]2(C)[C@@]1(O)C(=O)CO` [dexamethasone, reference compound], the “inhibition of swelling compared to saline control” value ([1]; 5 mg/kg, intraperitoneal, p <0.01 by Student's t-test) was “significant inhibition of swelling”, the “inhibition of swelling compared to saline control” value ([1]; 5 mg/kg, oral, p <0.01 by Student's t-test) was “significant inhibition of swelling” and the “inhibition of swelling compared to saline control” value ([2]; 5 mg/kg) was “effective at inhibiting swelling”.

For `Nc1nc(Cl)nc2c1ncn2[C@@H]1O[C@H](CO)[C@@H](O)[C@@H]1F` [CAFdA, 2-chloro-9,1'-beta-2'-deoxy-2'-fluoro-D-arabinofuranosyladenine], the pIC50 (CEM, wild type [3]) was 7.17, the “CAFdA/2-CdA (ID50 ratio)” value (CEM, wild type [4]) was 3.1 and the viability at 0.05 µM [5] was no more than 60%. It also gave a viability at 0.06 µM [5] of less than 20%, a viability at 0.13 µM [5] of less than 10% and a viability at 0.26 µM (K562 (myeloid cell line)) of 40%. It also gave a pIC50 [6] of 7.74, a viability at 0.26 µM (SB (B cell line)) of 90% and a pIC50 [7] of 5.22. For the same compound, the “CAFdA/2-CdA (ID50 ratio)” value (Monocytes [8]) was 2.1, the “CAFdA/2-CdA (ID50 ratio)” value [9] was 2.1 and the viability at 0.06 µM [10] was less than 20%. It also gave a viability at 0.13 µM [10] of less than 10%, a viability at 0.06 µM (Molt-4 (T cell line)) of less than 20% and a viability at 0.13 µM (Molt-4 (T cell line)) of less than 10%. It also gave a viability at 0.05 µM [11] of no more than 60%, a viability at 0.06 µM [11] of less than 20% and a viability at 0.13 µM [11] of less than 10%. For the same compound, the pIC50 (Monocytes [12]) was 7.33, the “inhibition of swelling compared to saline control” value [1, 27] was “significant inhibition of swelling” and the “inhibition of swelling compared to saline control” value ([1]; 1 mg/kg, oral, p <0.01 by Student's t-test) was “significant inhibition of swelling”. The “effectiveness when given orally” value ([1]; oral) was “effective”, the “CAFdA/2-CdA (ID50 ratio)” value [13] was 15 and the pIC50 [14] was 6.90. The viability at 0.05 µM (CEM (T cell line)) was no more than 60%, the viability at 0.06 µM (CEM (T cell line)) was less than 20% and the viability at 0.13 µM (CEM (T cell line)) was less than 10%. The pIC50 [15] was 3.15 and the “CAFdA/2-CdA (ID50 ratio)” value [16] was 1.9.

For α-interferon, the “bone marrow cells with the translocation” value [17] is given as “sometimes loses the clone with the translocation”.

For `NC(=O)NO` [hydroxyurea], the “bone marrow cells with the translocation” value [17] is given as “still contains a predominance of cells with the translocation”.

In the case of `CS(=O)(=O)OCCCCOS(C)(=O)=O` [busulfan], the “serious complication ("busulfan lung")” value ([17]; CML treatment) is listed as “bronchopulmonary dysplasia with pulmonary fibrosis” and the “bone marrow cells with the translocation” value [17] is listed as “still contains a predominance of cells with the translocation”.

For `Nc1ncnc2c1ncn2[C@@H]1O[C@H](CO)C[C@H]1F` [2'-fluoro-2',3'-dideoxyribose], the stability [18] is given as “stable”.

In the case of `Nc1ncnc2c1ncn2[C@@H]1O[C@H](CO)C[C@@H]1F` [2'-fluoro-2',3'-dideoxyarabinose], the stability [18] is listed as “stable”.

With `Nc1nc(Cl)nc2c1ncn2[C@H]1C[C@H](O)[C@@H](CO)O1` [2-CdA, 2-chloro-2'-deoxyadenosine] the pIC50 (CEM, wild type [3]) was 7.68, the “granulocyte counts after several courses” value (granulocytes [19]; multiple sclerosis patients, about 0.1 mg/kg/day, seven day continuous infusion) was “substantially unchanged” and the “effect on the granulocyte count” value (granulocytes [19]; two multiple sclerosis patients) was “did not affect the granulocyte count”. For the same compound, the neutropenia (granulocytes [20]) was “transient neutropenia”, the granulocyte counts (granulocytes [20]; transient) was “under 500 per microliter” and the pIC50 [21] was 7.80. For the same compound, the pIC50 [6] was 7.82, the pIC50 [7] was 5.40 and the neutrophil count (neutrophils) was “increase in neutrophil count”. For the same compound, the granulocyte count ([22]; second course, day 5) was 27,724 /μl, the “decrease from the granulocyte count at day zero” value ([22]; second course, day 13) was greater than 99% and the granulocyte count ([22]; second course, day 13) was 210 µL⁻¹. The granulocyte count ([22]; second course, day 17) was 690 µL⁻¹, the granulocyte count ([22]; second course, day zero (start of therapy)) was 34,831 /μl and the granulocyte count ([22]; third course, day 5, unit not given) was 5,676 /μl. For the same compound, the “decrease from the initial granulocyte level” value ([22]; third course, day 14) was “approximately 98%”, the granulocyte count ([22]; third course, day 14, unit not given) was 270 µL⁻¹ and the “lower than the initial granulocyte count” value ([22]; third course, day 17) was 95%. The granulocyte count ([22]; third course, day 17, unit not given) was 525 µL⁻¹, the granulocyte count ([22]; third course, day zero, unit not given) was 11,060 /μl and the detectable tumor (CML in blast crisis; another of two patients) was “loss of detectable tumor in another patient”. For the same compound, the blast count (CML in blast crisis; one of two patients) was “decrease in blast count in one patient”, the “toxicity attributable to 2-CdA” value ([23]; 0.1 mg/kg per day continuous i.v. infusion for 7 days, 1 to 4 courses) was “No toxicity attributable to 2-CdA was encountered” and the “hematological remission upon follow-up, Patient 4” value ([23]; 1 course, prior hydroxyurea and α-interferon, follow-up 1.5 months) was “complete hematological remission”. For the same compound, the “hematological remission upon follow-up, Patient 5” value ([23]; 2 courses, prior hydroxyurea, follow-up 1.0 months) was “complete hematological remission”, the “hematological remission upon follow-up, Patient 2” value ([23]; 2 courses, prior hydroxyurea, follow-up 3.0 months) was “complete hematological remission” and the “hematological remission upon follow-up, Patient 3” value ([23]; 3 courses, prior hydroxyurea and α-interferon, follow-up 3.2 months) was “complete hematological remission”. For the same compound, the “hematological remission upon follow-up, Patient 1” value ([23]; 4 courses, prior hydroxyurea, follow-up 5.7 months) was “complete hematological remission”, the “complete hematological remissions (normalization of peripheral leukocyte counts, platelet counts, and resolution of splenomegaly)” value ([23]; 5 patients, 0.1 mg/kg per day continuous i.v. infusion for 7 days, repeated every 28 days, median 2 courses) was “All five patients obtained complete hematological remissions” and the “median follow-up (all patients continuing in hematologic remission)” value ([23]; 5 patients, range 1.0 to 5.7 months) was 3.2 months. The “Philadelphia chromosome at follow-up” value ([23]; all patients) was “persistence of the Philadelphia chromosome”, the “hematologic remission at follow-up, all patients” value ([23]; median follow-up 3.2 months) was “All patients continue to be in hematologic remission” and the pIC50 (Monocytes [12]) was 7.66. For the same compound, the “inhibition of swelling compared to control animals” value [1, 27] was “significant inhibition of swelling”, the “effect on DTH swelling, oral route” value ([1]; 1 mg/kg, oral, without enteric coating) was “ineffective” and the “effectiveness when given orally” value ([1]; oral) was “ineffective”. The pIC50 [14] was 7.22, the pIC50 [24] was 7.25 and the “inhibition of swelling compared to saline control” value ([2]; 0.1 mg/kg) was “effective at inhibiting swelling”. For the same compound, the “inhibition of swelling compared to saline control” value ([2]; 1 mg/kg) was “effective at inhibiting swelling”, the “areas of swelling, 0.1 vs 1.0 mg/kg” value ([2]; 0.1 and 1.0 mg/kg) was “substantially the same” and the “areas of swelling compared to dexamethasone-treated animals” value ([2]; 0.1 and 1.0 mg/kg 2-CdA vs dexamethasone 5 mg/kg) was “slightly less than the value obtained with dexamethasone”. For the same compound, the pIC50 [15] was 3.15, the “reduction of CFU-GM growth” value (CFU-GM cells) was 60% and the pIC50 [25] was 7.72. The pIC50 [26] was 7.42.
